# From patent US20250382344A1, “Soluble GLP1/GIP/NPY2 Receptor Triple Agonists” (Boehringer Ingelheim International GmH, priority 2024, published 2025)
# Read-outs that look alike come from different tables or passages of the source.
# Assays:
# [1] = molecular target: T1, hGIPR (Homo sapiens, UniProt P48546); assay: hGIPR CreLuc assay in 0.5% and 100% plasma (CHO CRE-luciferase reporter cells); assay type: cell-based; conditions: 0.5% human plasma, read-out: hGIPR 0.5% hP
# T1 construct: expressed in transfected cells; host or cells: CHO CRE-luciferase reporter cells
# T1 sequence (P48546 22-466): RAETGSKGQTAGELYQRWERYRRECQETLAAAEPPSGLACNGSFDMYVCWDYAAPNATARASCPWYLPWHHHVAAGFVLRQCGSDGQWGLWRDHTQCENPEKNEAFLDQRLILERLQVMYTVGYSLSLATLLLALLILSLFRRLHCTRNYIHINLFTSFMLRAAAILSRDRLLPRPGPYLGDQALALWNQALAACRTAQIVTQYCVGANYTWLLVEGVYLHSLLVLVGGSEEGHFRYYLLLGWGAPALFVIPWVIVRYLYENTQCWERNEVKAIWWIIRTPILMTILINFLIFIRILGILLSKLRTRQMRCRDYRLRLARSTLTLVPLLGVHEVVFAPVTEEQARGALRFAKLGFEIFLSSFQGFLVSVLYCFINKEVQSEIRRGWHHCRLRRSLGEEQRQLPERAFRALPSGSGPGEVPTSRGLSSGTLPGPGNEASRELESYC
# [2] = molecular target: T2, hNPY2R (Homo sapiens, UniProt P49146); assay: hNPY2R CreLuc assay in 0.5% and 100% plasma (HEK-293 CRE-luciferase reporter cells); assay type: cell-based; conditions: HEK-293 reporter cells
# T2 construct: expressed in transfected cells; host or cells: HEK-293 CRE-luciferase reporter cells
# T2 sequence (P49146 1-381): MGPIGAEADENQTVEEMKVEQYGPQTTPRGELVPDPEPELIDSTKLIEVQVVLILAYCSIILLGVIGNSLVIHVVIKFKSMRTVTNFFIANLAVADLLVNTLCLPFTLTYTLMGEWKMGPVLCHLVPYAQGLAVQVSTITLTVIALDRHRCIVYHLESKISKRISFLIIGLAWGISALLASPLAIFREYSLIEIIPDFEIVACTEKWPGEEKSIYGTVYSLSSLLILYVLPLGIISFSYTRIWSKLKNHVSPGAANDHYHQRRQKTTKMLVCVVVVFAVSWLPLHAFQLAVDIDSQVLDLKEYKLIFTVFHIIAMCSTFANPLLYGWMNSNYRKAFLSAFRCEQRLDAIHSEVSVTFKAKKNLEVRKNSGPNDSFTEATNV
# [3] = Solubility in 0.1 M phosphate buffer at pH 7; assay type: physicochemical; conditions: 0.1 M phosphate buffer at pH 7, 10 mg/mL final peptide concentration, shaking 2 hours at room temperature, peptides as TFA-salts; measured sample pH 6.5-7.0
# [4] = 100% human plasma, read-out: hNPY2R 100% hP
EC50 [1] [nM],"EC50 [2, 4] [nM]",solubility at 2 h [3] [µg/mL],"EC50 ([2]; 0.5% human plasma, read-out: hNPY2R 0.5% hP) [nM]",Structure (SMILES)
0.7,43.8,8700,–,"CC[C@H](C)[C@H](NC(=O)[C@H](CC(C)C)NC(=O)[C@H](Cc1c[nH]cn1)NC(=O)[C@H](CCCNC(=N)N)NC(=O)[C@@H](NC(=O)[C@H](Cc1ccccc1)NC(=O)[C@H](C)NC(=O)C(C)(C)NC(=O)[C@H](CCC(=O)O)NC(=O)[C@H](C)NC(=O)[C@H](CCC(N)=O)NC(=O)[C@H](CCCCN)NC(=O)[C@H](CCC(=O)O)NC(=O)[C@H](CC(C)C)NC(=O)C(C)(C)NC(=O)[C@@H](NC(=O)[C@H](CO)NC(=O)[C@H](Cc1ccc(O)cc1)NC(=O)[C@H](CC(=O)O)NC(=O)[C@H](CO)NC(=O)[C@@H](NC(=O)[C@H](Cc1ccccc1)NC(=O)[C@@H](NC(=O)CNC(=O)[C@H](CCC(=O)O)NC(=O)C(C)(C)NC(=O)[C@@H](N)Cc1ccc(O)cc1)[C@@H](C)O)[C@@H](C)O)[C@@H](C)CC)C(C)C)C(=O)N[C@@H](CC(N)=O)C(=O)N[C@@H](CCCCNC(=O)[C@@H](N)CCCCNC(=O)CC[C@H](NC(=O)CC[C@H](NC(=O)COCCOCCNC(=O)CC[C@H](NC(=O)CC[C@H](NC(=O)CC[C@H](NC(=O)CCCCCCCCCCCCCCCCCCC(=O)O)C(=O)O)C(=O)O)C(=O)O)C(=O)O)C(=O)O)C(=O)NC(C)(C)C(=O)N[C@H](C(=O)N[C@@H](CCCNC(=N)N)C(=O)N[C@@H](CCC(N)=O)C(=O)N[C@@H](CCCNC(=N)N)C(=O)N[C@@H](Cc1ccc(O)cc1)C(N)=O)[C@@H](C)O [Compound 162, Y-Aib-E-G-T-F-T-S-D-Y-S-I-Aib-L-E-K-Q-A-E-Aib-A-F-V-R-H-L-I-N-K(1,3)-Aib-T-R-Q-R-Y-NH2.C20DA-gGlu-gGlu-gGlu-OEG-gGlu-gGlu-eLys(1,2)]"
0.5,125,10000,–,"CC[C@H](C)[C@H](NC(=O)[C@H](CC(C)C)NC(=O)[C@H](Cc1c[nH]cn1)NC(=O)[C@H](CCCNC(=N)N)NC(=O)[C@@H](NC(=O)[C@H](Cc1ccccc1)NC(=O)[C@H](C)NC(=O)C(C)(C)NC(=O)[C@H](CCC(N)=O)NC(=O)[C@H](C)NC(=O)[C@H](CCC(N)=O)NC(=O)[C@H](CCCCN)NC(=O)[C@H](CCC(=O)O)NC(=O)[C@H](CC(C)C)NC(=O)C(C)(C)NC(=O)[C@@H](NC(=O)[C@H](CO)NC(=O)[C@H](Cc1ccc(O)cc1)NC(=O)[C@H](CC(=O)O)NC(=O)[C@H](CO)NC(=O)[C@@H](NC(=O)[C@H](Cc1ccccc1)NC(=O)[C@@H](NC(=O)CNC(=O)[C@H](CCC(=O)O)NC(=O)C(C)(C)NC(=O)[C@@H](N)Cc1ccc(O)cc1)[C@@H](C)O)[C@@H](C)O)[C@@H](C)CC)C(C)C)C(=O)N[C@@H](CC(N)=O)C(=O)N[C@@H](CCCCNC(=O)COCCOCCNC(=O)CC[C@H](NC(=O)CC[C@H](NC(=O)CC[C@H](NC(=O)CC[C@H](NC(=O)CC[C@H](NC(=O)CC[C@H](NC(=O)CCCCCCCCCCCCCCCCCCC(=O)O)C(=O)O)C(=O)O)C(=O)O)C(=O)O)C(=O)O)C(=O)O)C(=O)NC(C)(C)C(=O)N[C@H](C(=O)N[C@@H](CCCNC(=N)N)C(=O)N[C@@H](CCC(N)=O)C(=O)N[C@@H](CCCNC(=N)N)C(=O)N[C@@H](Cc1ccc(O)cc1)C(N)=O)[C@@H](C)O [Compound 99, Y-Aib-E-G-T-F-T-S-D-Y-S-I-Aib-L-E-K-Q-A-Q-Aib-A-F-V-R-H-L-I-N-K(1,3)-Aib-T-R-Q-R-Y-NH2.C20DA-gGlu-gGlu-gGlu-gGlu-gGlu-gGlu-OEG(1,2)]"
0.2,135,5200,–,"CC[C@H](C)[C@H](NC(=O)[C@H](CC(C)C)NC(=O)[C@H](Cc1c[nH]cn1)NC(=O)[C@H](CCCNC(=N)N)NC(=O)[C@@H](NC(=O)[C@H](Cc1ccccc1)NC(=O)[C@H](C)NC(=O)C(C)(C)NC(=O)[C@H](CCC(N)=O)NC(=O)[C@H](C)NC(=O)[C@H](CCC(N)=O)NC(=O)[C@H](CCCCN)NC(=O)[C@H](CCC(=O)O)NC(=O)[C@H](CC(C)C)NC(=O)C(C)(C)NC(=O)[C@@H](NC(=O)[C@H](CO)NC(=O)[C@H](Cc1ccc(O)cc1)NC(=O)[C@H](CC(=O)O)NC(=O)[C@H](CO)NC(=O)[C@@H](NC(=O)[C@H](Cc1ccccc1)NC(=O)[C@@H](NC(=O)CNC(=O)[C@H](CCC(=O)O)NC(=O)C(C)(C)NC(=O)[C@@H](N)Cc1ccc(O)cc1)[C@@H](C)O)[C@@H](C)O)[C@@H](C)CC)C(C)C)C(=O)N[C@@H](CC(N)=O)C(=O)N[C@@H](CCCCNC(=O)CCCCCNC(=O)CC[C@H](NC(=O)CC[C@H](NC(=O)CC[C@H](NC(=O)CC[C@H](NC(=O)CC[C@H](NC(=O)CC[C@H](NC(=O)CCCCCCCCCCCCCCCCCCC(=O)O)C(=O)O)C(=O)O)C(=O)O)C(=O)O)C(=O)O)C(=O)O)C(=O)NC(C)(C)C(=O)N[C@H](C(=O)N[C@@H](CCCNC(=N)N)C(=O)N[C@@H](CCC(N)=O)C(=O)N[C@@H](CCCNC(=N)N)C(=O)N[C@@H](Cc1ccc(O)cc1)C(N)=O)[C@@H](C)O [Compound 157, Y-Aib-E-G-T-F-T-S-D-Y-S-I-Aib-L-E-K-Q-A-Q-Aib-A-F-V-R-H-L-I-N-K(1,3)-Aib-T-R-Q-R-Y-NH2.C20DA-gGlu-gGlu-gGlu-gGlu-gGlu-gGlu-AHX(1,2)]"
0.4,–,4600,43.8,"CC[C@H](C)[C@H](NC(=O)[C@H](CC(C)C)NC(=O)[C@H](Cc1c[nH]cn1)NC(=O)[C@H](CCCNC(=N)N)NC(=O)[C@@H](NC(=O)[C@H](Cc1ccccc1)NC(=O)[C@H](C)NC(=O)[C@H](CCC(=O)O)NC(=O)[C@H](CCC(N)=O)NC(=O)[C@H](C)NC(=O)[C@H](CCC(N)=O)NC(=O)[C@H](CCCCN)NC(=O)[C@H](CCC(=O)O)NC(=O)[C@H](CC(C)C)NC(=O)C(C)(C)NC(=O)[C@@H](NC(=O)[C@H](CO)NC(=O)[C@H](Cc1ccc(O)cc1)NC(=O)[C@H](CC(=O)O)NC(=O)[C@H](CO)NC(=O)[C@@H](NC(=O)[C@H](Cc1ccccc1)NC(=O)[C@@H](NC(=O)CNC(=O)[C@H](CCC(=O)O)NC(=O)C(C)(C)NC(=O)[C@@H](N)Cc1ccc(O)cc1)[C@@H](C)O)[C@@H](C)O)[C@@H](C)CC)C(C)C)C(=O)N[C@@H](CC(N)=O)C(=O)N[C@@H](CCCCNC(=O)[C@@H](N)CCCCNC(=O)CC[C@H](NC(=O)CC[C@H](NC(=O)CC[C@H](NC(=O)CC[C@H](NC(=O)CC[C@H](NC(=O)CC[C@H](NC(=O)CCCCCCCCCCCCCCCCC(=O)O)C(=O)O)C(=O)O)C(=O)O)C(=O)O)C(=O)O)C(=O)O)C(=O)NC(C)(C)C(=O)N[C@H](C(=O)N[C@@H](CCCNC(=N)N)C(=O)N[C@@H](CCC(N)=O)C(=O)N[C@@H](CCCNC(=N)N)C(=O)N[C@@H](Cc1ccc(O)cc1)C(N)=O)[C@@H](C)O [Compound 170, Y-Aib-E-G-T-F-T-S-D-Y-S-I-Aib-L-E-K-Q-A-Q-E-A-F-V-R-H-L-I-N-K(1,3)-Aib-T-R-Q-R-Y-NH2.C18DA-gGlu-gGlu-gGlu-gGlu-gGlu-gGlu-eLys(1,2)]"
